# Assay results published in patent US8729312B2, “Derivatives of novel peroxides, method of preparation thereof and use thereof in human medicine as well as in cosmetics for the treatment or prevention of acne” (Galderma Research & Development, priority 2009, dated 2014).
# Several values for one entry are separate records, joined by “and”; a condition that tells them apart may be missing. Equal entries are not always repeated.
# Columns and labels:
# TPA-induced ear oedema = assay: Anti-inflammatory activity after a single topical administration in TPA-induced ear oedema; assay type: in vivo, mouse; conditions: for Inhibition vs TPA (%) / Ear oedema Mean / anti-inflammatory effect (conclusion in words): single topical application; for Inhibition vs TPA (%): T6h; for Ear oedema Mean: mouse ear thickness at T6h; for ranking compared to BPO at 5%: compound at 5%
# Method: the aim is to evaluate the anti-inflammatory activity of the peroxides by measuring the thickness of mouse ear after TPA topical application. The anti-inflammatory activity is defined as a inhibition percentage of the TAP-induced ear oedema.
# An oedema was induced by a single topical application of 20 μl of TPA dissolved in acetone at 0.01%.
# Then a single topical application of tested compounds dissolved in TPA solution.
# Ear thickness was measured at T6h.
# Results are expressed in percentages based on the inhibition on the oedema induced by the TPA application.
# Benzoyl peroxide (BPO) was tested 2 times as a reference peroxide.
# P. acnes CIP53.117 = assay: Minimum inhibitory concentration (MIC) on Propionibacterium acnes, dilution in liquid medium; assay type: cell-based; conditions: strain CIP53.117, anaerobic, 36° C., minimum 72 h, range 2.5 mg/L to 1280 mg/L
# Text: (§1) the aim is to evaluate the anti-bacterial activity of the peroxides by measuring the minimum inhibitory concentration (MIC). The MIC is defined as the lowest concentration of product capable of inhibiting all visible growth.
# (§2) The sensitivity of the products is investigated on two strains from the Pasteur Institute collection (CIP) of Propionibacterium acnes (P. acnes): • P. acnes CIP53.117, equivalent to ATCC6919, origin: facial acne lesion (1920), source CRBIP, Pasteur Institute, Paris • P. acnes CIPA179, origin: sebaceous gland (1946), source CRBIP, Pasteur Institute, Paris Tests on the Products:
# (§3) The products are dissolved at 1280 mg/L in a mixture of absolute ethanol/sterile Tween 80/sterile Wilkins Chalgren broth ([…]). The dilution ranges used are an adaptation of the method described by the CLSI for methods of dilution in liquid medium. The range consists of 10 concentrations from 2.5 mg/L to 1280 mg/L at intervals of ratio 2.
# (§4) The suspension of P. acnes is prepared in Wilkins Chalgren broth and calibrated at an optical density of about 0.4 at wavelength of 525 nm. It is then diluted to 1/10 in Wilkins Chalgren broth and then put in the test cupules to obtain a final suspension of about 10^5-10^6 CFU/mL in each test cupule.
# (§5) The solutions of the test products are distributed on a 96-well microplate and incubated at 36° C.±2° C. under anaerobic atmosphere for a minimum of 72 h. The first cupule for which there is no growth visible to the naked eye is regarded as the MIC.
# P. acnes CIPA179 = assay: as above; assay type: cell-based; conditions: strain CIPA179, anaerobic, 36° C., minimum 72 h, range 2.5 mg/L to 1280 mg/L
# Text: as §1, §2, §3, §4, §5
# [1] = TPA-induced ear oedema mouse model
smiles,measurement,setting,value
"O=C(OOC(=O)c1ccccc1)c1ccccc1 [BPO, Benzoyl peroxide, reference compound]",Inhibition vs TPA (%),TPA-induced ear oedema; compound 5% in TPA 0.01%,21.4% and 27.8%
same,Ear oedema Mean,TPA-induced ear oedema; compound 5% in TPA 0.01%,17.60 and 20.80
"CC(=O)OCOc1ccccc1C(=O)OOC(=O)c1ccccc1OCOC(C)=O [Example 1, bis(2-acetoxymethoxy)-benzoyl peroxide]",MIC (minimum inhibitory concentration),P. acnes CIP53.117,320 µg/mL
same,MIC (minimum inhibitory concentration),P. acnes CIPA179,320 µg/mL
same,ranking of Ex n°1 against Ex n°2,"TPA-induced ear oedema; both at 5%, TPA-induced ear oedema mouse model",slightly better than Ex n°2 at 5%
same,Inhibition vs TPA (%),TPA-induced ear oedema; compound 1% in TPA 0.01%,45.7%
same,Ear oedema Mean,TPA-induced ear oedema; compound 1% in TPA 0.01%,13.80
same,Inhibition vs TPA (%),TPA-induced ear oedema; compound 2.5% in TPA 0.01%,74.8%
same,Ear oedema Mean,TPA-induced ear oedema; compound 2.5% in TPA 0.01%,6.40
same,Inhibition vs TPA (%),TPA-induced ear oedema; compound 5% in TPA 0.01%,81.9%
same,Ear oedema Mean,TPA-induced ear oedema; compound 5% in TPA 0.01%,4.60
same,ranking compared to BPO at 5%,TPA-induced ear oedema; [1],superior compared to BPO 5%
same,anti-inflammatory effect (conclusion in words),TPA-induced ear oedema; [1],strong dose-dependent anti-inflammatory effect
"CC(=O)OCOc1ccccc1C(=O)OOC(=O)c1ccccc1 [Example 2, (2-acetoxymethoxy-benzoyl)benzoyl peroxide]",MIC,P. acnes CIP53.117; Cutibacterium acnes,160 µg/mL
same,MIC,P. acnes CIPA179; Cutibacterium acnes,80 µg/mL
same,Inhibition vs TPA (%),TPA-induced ear oedema; compound 1% in TPA 0.01%,19.7%
same,Ear oedema Mean,TPA-induced ear oedema; compound 1% in TPA 0.01%,20.40
same,Inhibition vs TPA (%),TPA-induced ear oedema; compound 2.5% in TPA 0.01%,42.5%
same,Ear oedema Mean,TPA-induced ear oedema; compound 2.5% in TPA 0.01%,14.60
same,Inhibition vs TPA (%),TPA-induced ear oedema; compound 5% in TPA 0.01%,71.7%
same,Ear oedema Mean,TPA-induced ear oedema; compound 5% in TPA 0.01%,7.20
same,ranking compared to BPO at 5%,TPA-induced ear oedema; [1],superior compared to BPO 5%
same,anti-inflammatory effect (conclusion in words),TPA-induced ear oedema; [1],moderate anti-inflammatory effect
